Measurements reported in patent US8450315B2, “Phosphoinositide 3-kinase inhibitor compounds and methods of use” (Genentech, Inc., priority 2006, dated 2013).

Columns and labels:
[1] = target: human PI3K isoform gamma (p110 gamma) (Homo sapiens, UniProt P48736); assay: p110 isoform selectivity scintillation proximity assay (SPA), gamma isoform; type: biochemical; conditions: fold potency over gamma relative to alpha, calculated from IC50 values (SPA)
Method: (§1) Binding of Formula Ia and Ib compounds from Tables 1a and 1b to purified preparations of p110 isoforms alpha, beta, delta, and gamma was measured by a Scintillation Proximity Assay (SPA) to determine binding activity (IC50 μMol) and selectivity of binding of beta, delta, and gamma isoforms relative to alpha (Example 365). These values are expressed in Table 2.
(§2) The ability of Formula Ia and Ib compounds from Tables 1a and 1b to inhibit the lipid kinase activity of purified preparations of human PI3K isoforms alpha, beta, delta, and gamma was determined by a radiometric scintillation proximity assay (SPA, GE Healthcare, Amersham Biosciences). Concentration dependent inhibition at 50% (IC50 μMol) was determined for all four isoforms […] and fold potency over beta, delta, and gamma relative to alpha was calculated for a selection of compounds in Table 2. Each compound has a p110 alpha IC50<1 μMol.

[2] = target: human PI3K isoform beta (p110 beta) (Homo sapiens, UniProt P42338); assay: p110 isoform selectivity scintillation proximity assay (SPA), beta isoform; type: biochemical; conditions: fold potency over beta relative to alpha, calculated from IC50 values (SPA)
Sequence of human PI3K isoform beta (p110 beta) (P42338 whole entry, canonical isoform): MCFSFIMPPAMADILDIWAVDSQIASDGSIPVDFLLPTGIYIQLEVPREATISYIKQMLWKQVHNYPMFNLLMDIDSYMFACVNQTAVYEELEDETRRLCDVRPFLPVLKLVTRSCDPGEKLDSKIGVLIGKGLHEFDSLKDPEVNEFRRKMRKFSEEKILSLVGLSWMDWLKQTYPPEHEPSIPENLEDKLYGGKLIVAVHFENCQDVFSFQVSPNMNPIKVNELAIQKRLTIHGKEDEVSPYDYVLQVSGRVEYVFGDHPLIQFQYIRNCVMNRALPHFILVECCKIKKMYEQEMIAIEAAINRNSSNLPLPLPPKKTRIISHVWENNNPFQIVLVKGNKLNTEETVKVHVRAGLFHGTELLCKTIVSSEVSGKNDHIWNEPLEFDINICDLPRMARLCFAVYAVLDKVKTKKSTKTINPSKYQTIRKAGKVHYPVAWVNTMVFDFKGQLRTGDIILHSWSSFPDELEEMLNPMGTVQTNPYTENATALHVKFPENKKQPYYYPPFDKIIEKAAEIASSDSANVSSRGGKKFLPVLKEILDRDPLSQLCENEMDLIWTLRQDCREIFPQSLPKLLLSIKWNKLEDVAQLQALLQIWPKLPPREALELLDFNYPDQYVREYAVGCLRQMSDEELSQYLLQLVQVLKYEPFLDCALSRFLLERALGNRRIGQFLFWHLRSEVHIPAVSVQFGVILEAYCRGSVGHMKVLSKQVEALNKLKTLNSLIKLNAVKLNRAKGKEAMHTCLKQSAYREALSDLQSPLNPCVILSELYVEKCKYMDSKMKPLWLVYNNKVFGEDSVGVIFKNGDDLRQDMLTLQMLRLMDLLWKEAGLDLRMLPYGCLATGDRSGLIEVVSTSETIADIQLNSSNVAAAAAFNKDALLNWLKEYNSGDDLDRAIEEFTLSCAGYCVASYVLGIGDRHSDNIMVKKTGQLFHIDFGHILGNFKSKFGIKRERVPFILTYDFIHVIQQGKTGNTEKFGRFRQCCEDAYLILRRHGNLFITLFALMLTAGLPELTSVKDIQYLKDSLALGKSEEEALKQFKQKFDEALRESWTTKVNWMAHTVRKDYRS
Sequence of human PI3K isoform beta (p110 beta) (P27986 whole entry partner, canonical isoform): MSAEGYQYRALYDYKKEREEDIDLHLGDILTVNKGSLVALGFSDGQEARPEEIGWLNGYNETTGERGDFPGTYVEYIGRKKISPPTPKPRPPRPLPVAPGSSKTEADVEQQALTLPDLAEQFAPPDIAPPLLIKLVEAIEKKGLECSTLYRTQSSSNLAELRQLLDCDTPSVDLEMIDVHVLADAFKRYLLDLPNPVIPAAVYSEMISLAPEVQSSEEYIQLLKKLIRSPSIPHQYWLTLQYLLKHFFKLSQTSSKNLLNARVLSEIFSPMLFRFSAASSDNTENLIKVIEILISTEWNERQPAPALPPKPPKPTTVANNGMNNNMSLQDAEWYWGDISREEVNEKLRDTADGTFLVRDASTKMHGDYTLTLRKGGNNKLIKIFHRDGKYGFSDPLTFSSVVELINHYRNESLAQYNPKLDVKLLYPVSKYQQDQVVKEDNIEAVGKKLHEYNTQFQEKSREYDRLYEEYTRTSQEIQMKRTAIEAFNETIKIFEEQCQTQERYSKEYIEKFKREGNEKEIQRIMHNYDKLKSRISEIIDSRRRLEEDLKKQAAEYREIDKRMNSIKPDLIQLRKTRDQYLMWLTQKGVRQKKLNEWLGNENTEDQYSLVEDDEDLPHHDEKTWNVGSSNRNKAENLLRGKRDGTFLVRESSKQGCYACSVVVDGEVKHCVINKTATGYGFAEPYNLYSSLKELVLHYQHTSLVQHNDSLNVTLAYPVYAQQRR
Method: as §1, §2

[3] = target: human PI3K isoform delta (p110 delta) (Homo sapiens, UniProt O00329); assay: p110 isoform selectivity scintillation proximity assay (SPA), delta isoform; type: biochemical; conditions: fold potency over delta relative to alpha, calculated from IC50 values (SPA)
Sequence of human PI3K isoform delta (p110 delta) (O00329 whole entry, canonical isoform): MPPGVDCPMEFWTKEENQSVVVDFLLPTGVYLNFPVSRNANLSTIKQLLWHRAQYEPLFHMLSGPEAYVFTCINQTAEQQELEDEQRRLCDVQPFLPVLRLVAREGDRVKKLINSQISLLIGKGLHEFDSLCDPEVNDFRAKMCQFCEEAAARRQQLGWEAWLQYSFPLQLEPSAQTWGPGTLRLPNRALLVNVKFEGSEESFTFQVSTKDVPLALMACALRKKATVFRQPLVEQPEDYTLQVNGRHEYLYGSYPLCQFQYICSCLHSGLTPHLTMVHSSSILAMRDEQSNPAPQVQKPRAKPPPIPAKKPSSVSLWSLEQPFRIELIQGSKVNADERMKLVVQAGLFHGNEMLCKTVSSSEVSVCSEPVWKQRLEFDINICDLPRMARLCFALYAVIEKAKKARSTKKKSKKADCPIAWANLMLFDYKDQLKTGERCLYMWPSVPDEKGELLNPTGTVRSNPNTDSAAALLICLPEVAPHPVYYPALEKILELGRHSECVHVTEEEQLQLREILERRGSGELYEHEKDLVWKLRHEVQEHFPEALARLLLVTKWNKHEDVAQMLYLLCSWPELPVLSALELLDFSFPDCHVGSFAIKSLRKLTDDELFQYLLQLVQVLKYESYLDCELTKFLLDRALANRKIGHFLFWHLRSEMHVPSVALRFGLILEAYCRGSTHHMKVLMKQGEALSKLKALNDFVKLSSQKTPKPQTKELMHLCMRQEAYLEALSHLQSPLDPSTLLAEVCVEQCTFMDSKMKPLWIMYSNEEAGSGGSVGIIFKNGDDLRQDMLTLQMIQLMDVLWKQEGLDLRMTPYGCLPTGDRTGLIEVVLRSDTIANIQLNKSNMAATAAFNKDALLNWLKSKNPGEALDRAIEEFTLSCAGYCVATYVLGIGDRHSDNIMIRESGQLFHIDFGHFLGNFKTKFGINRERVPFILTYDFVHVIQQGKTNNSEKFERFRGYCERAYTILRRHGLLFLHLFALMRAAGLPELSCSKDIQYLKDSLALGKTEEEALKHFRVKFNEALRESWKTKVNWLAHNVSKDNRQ
Sequence of human PI3K isoform delta (p110 delta) (P27986 whole entry partner, canonical isoform): as the sequence (P27986 whole entry partner, canonical isoform) above
Method: as §1, §2

[4] = cited from earlier work
[5] = cited from earlier work; remark: listed apart in the source

Sequence of human PI3K isoform gamma (p110 gamma) (P48736 whole entry, canonical isoform): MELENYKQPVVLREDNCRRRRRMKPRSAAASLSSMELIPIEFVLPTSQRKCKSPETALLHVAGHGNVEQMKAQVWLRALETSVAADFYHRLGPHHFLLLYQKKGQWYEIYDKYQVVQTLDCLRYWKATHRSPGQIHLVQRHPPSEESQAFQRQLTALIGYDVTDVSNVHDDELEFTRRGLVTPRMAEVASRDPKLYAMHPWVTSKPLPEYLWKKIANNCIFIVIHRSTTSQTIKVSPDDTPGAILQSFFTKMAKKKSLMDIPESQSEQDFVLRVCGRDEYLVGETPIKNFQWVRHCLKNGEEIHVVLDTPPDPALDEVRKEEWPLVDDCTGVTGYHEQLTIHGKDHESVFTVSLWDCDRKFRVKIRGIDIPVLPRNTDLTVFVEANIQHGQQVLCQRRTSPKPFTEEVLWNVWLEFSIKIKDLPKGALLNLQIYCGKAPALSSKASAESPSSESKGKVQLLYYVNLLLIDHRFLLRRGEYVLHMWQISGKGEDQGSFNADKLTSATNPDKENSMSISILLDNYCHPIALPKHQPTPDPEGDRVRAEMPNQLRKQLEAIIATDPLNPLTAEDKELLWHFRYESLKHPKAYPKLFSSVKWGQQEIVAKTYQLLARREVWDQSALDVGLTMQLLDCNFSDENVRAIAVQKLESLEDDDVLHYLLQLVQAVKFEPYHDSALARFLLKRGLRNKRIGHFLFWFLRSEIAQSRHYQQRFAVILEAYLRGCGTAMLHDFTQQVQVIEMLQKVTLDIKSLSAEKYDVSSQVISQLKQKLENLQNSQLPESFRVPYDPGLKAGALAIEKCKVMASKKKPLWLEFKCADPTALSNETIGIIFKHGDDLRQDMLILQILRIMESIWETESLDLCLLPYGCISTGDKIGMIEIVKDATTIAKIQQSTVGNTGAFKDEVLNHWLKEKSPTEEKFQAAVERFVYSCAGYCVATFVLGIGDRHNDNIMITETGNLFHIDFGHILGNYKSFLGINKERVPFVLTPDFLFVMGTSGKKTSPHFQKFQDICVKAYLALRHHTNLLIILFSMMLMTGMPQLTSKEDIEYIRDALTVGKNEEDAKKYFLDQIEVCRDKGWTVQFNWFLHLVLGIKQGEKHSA

Structure (SMILES)	alpha/gamma [1]	alpha/beta [2]	alpha/delta [3]	aqueous solubility [4]	metabolism in animals ([5]; animals)	pharmacokinetics ([5]; in vivo)
Cc1c(-c2cccc(S(C)(=O)=O)c2)sc2c(N3CCOCC3)nc(-c3cnc4[nH]ccc4c3)nc12 [Compound 395, 7-methyl-6-(3-(methylsulfonyl)phenyl)-4-morpholino-2-(1H-pyrrolo[2,3-b]pyridin-5-yl)thieno[3,2-d]pyrimidine]	>10	>10	>10			
CN(Cc1cc2c(N3CCOCC3)nc(-c3cnc4[nH]ccc4c3)nc2s1)S(C)(=O)=O [Compound 417, N-methyl, N-methylsulfonyl(4-morpholino-2-(1H-pyrrolo[2,3-b]pyridin-5-yl)thieno[2,3-d]pyrimidin-6-yl)methanamine]	>10	>10	>10			
CS(=O)(=O)c1cccc(-c2cc3nc(-c4cnc5[nH]ccc5c4)nc(N4CCOCC4)c3s2)c1 [Compound 418, 6-(3-(methylsulfonyl)phenyl)-4-morpholino-2-(1H-pyrrolo[2,3-b]pyridin-5-yl)thieno[3,2-d]pyrimidine]	>10	>10	10			
CC(C)(O)c1cc2nc(-c3cnc4[nH]ccc4c3)nc(N3CCOCC3)c2s1 [Compound 422, 2-(4-morpholino-2-(1H-pyrrolo[2,3-b]pyridin-5-yl)thieno[3,2-d]pyrimidin-6-yl)-propan-2-ol]	>10	>10	<10			
c1cc2cc(-c3nc(N4CCOCC4)c4sc(-c5ccc(N6CCOCC6)nc5)cc4n3)cnc2[nH]1 [Compound 428, 4-morpholino-6-(6-morpholinopyridin-3-yl)-2-(1H-pyrrolo[2,3-b]pyridin-5-yl)thieno[3,2-d]pyrimidine]	>10	>10	>10			
Nc1nc(-c2cc3nc(-c4cnc5[nH]ccc5c4)nc(N4CCOCC4)c3s2)cs1 [Compound 429, 4-(4-morpholino-2-(1H-pyrrolo[2,3-b]pyridin-5-yl)thieno[3,2-d]pyrimidin-6-yl)thiazol-2-amine]	>10	>10	>10			
O=c1cc(N2CCOCC2)oc2c(-c3ccccc3)cccc12 [LY294002, 2-(4-morpholinyl)-8-phenyl-4H-1-benzopyran-4-one]				lack of aqueous solubility	rapidly metabolized in animals	poor pharmacokinetics
